Measurements as given in patent US20020055528A1, “Artemisinin analogs having antimalarial, antiproliferative, and antitumor activities and chemoselective methods of making the same” (priority 1999, published 2002).

Columns and labels:
Assay type in all cases: cell-based
PC-3 = assay: NCI 60 cell line screen (SRB), Prostate Cancer
SF-295 = assay: NCI 60 cell line screen (SRB), CNS Cancer
[1] = system: MB231/ATCC (second line of the wrapped label, with values of its own); assay: NCI 60 cell line screen (SRB), Breast Cancer
OVCAR-5 = assay: NCI 60 cell line screen (SRB), Ovarian Cancer
NCI-H522 = assay: NCI 60 cell line screen (SRB), Non-Small Cell Lung Cancer
SK-MEL-5 = assay: NCI 60 cell line screen (SRB), Melanoma
SNB-19 = assay: NCI 60 cell line screen (SRB), CNS Cancer
K-562 = assay: NCI 60 cell line screen (SRB), Leukemia
MDA-MB-435 = assay: NCI 60 cell line screen (SRB), Breast Cancer
SR = assay: NCI 60 cell line screen (SRB), Leukemia; conditions: Table IV (LC50, PG=−50)
UACC-257 = assay: NCI 60 cell line screen (SRB), Melanoma
NCI-H460 = assay: NCI 60 cell line screen (SRB), Non-Small Cell Lung Cancer
OVCAR-4 = assay: NCI 60 cell line screen (SRB), Ovarian Cancer
NCI-H23 = assay: NCI 60 cell line screen (SRB), Non-Small Cell Lung Cancer
HL-60(TB) = assay: NCI 60 cell line screen (SRB), Leukemia
UACC-62 = assay: NCI 60 cell line screen (SRB), Melanoma
COLO 205 = assay: NCI 60 cell line screen (SRB), Colon Cancer; conditions: PG=+50
[2] = system: murine keratinocyte cell line PE; assay: Growth inhibition of PE cells, MTT assay; conditions: 100 nanomolar; compared with calcitriol; FIG. 5
Experimental: To determine the inhibitory effect of the compositions of the present invention on cell proliferation, screening assays were performed on a murine keratinocyte cell line PE. Cell line PE was chosen for its particular sensitivity to the induction of omithine decarboxylase (ODC) activity by the extensively characterized tumor promoter TPA. Cell line PE was derived from a papilloma-induced in female SENCAR mice by a standard skin initiation/promotion protocol, see Yuspa, S. H., et al., Carcinogenesis, 7:949-958 (1986). PE cell culture medium consisted of Eagle's minimal essential medium without calcium chloride (Whittaker Bioproducts, Walkersville, Mass.) supplemented with 8% chelexed fetal calf serum and 1% antibiotic-antimycotic (Gibco BRL) and the addition of CaCI2 to 0.05 mM Ca^++
MTT [3-(4,5-dimethylthiazol-2-yl)-2,5-diphenyltetraxolium bromide] was purchased from Sigma Chemical Co. (St. Louis, Mo.), and TPA was supplied by L.C. Services (Woburn, Mass.). L-[^14C]omithine ([…]) was from Amersham/Searle Corp. (Arlington Heights, Ill.). Chemical solvents used in all assays of biological activity were of the highest grade commercially available.
Growth curves, shown in FIG. 5, for PE cells treated with calcitriol and the C-10 carbon-substituted dimers VII-f, VII-g and VII-h generated by assay for the reduction of the tetrazolium-based compound MTT, see Charmichael, et al., Cancer Res., 47:936-942 (1987). A mitochondrial dehydrogenase reduces MTT to a blue formazan product with an absorbance maximum of 505 nm in DMSO; the number of viable cells can thus be determined spectrophotometrically. PE cells were seeded at a density of 5,000 cells/well in 50 IL of medium into 96-well microtiter plates. Twelve hours later, the medium was removed, and cells were treated with 100 μL of fresh medium into which the appropriate amount of calcitriol or analog dissolved in dimethyl sulfoxide (DMSO) had been added, with the concentration of DMSO held constant at 0.1 %. […] At 24-hour intervals following the initial treatment of the cells with compounds, 0.1 mg (50 μL of a 2 mg/mL solution) of MTT was added to each well. After 4 hours, the MTT was removed and DMSO added to dissolve the blue formazan dye. Using a microtiter plate reader, the A505 was then determined and cell number calculated from blank-subtracted absorbance values.

DU-145 = assay: NCI 60 cell line screen (SRB), Prostate Cancer
BT-549 = assay: NCI 60 cell line screen (SRB), Breast Cancer
MDA-MB231/ATCC = assay: NCI 60 cell line screen (SRB), Breast Cancer; conditions: MDA- (first line of MDA-MB231/ATCC)
LOX IMVI = assay: NCI 60 cell line screen (SRB), Melanoma
RPMI-8226 = assay: NCI 60 cell line screen (SRB), Leukemia; conditions: Table IV (LC50, PG=−50)
HCC-2998 = assay: NCI 60 cell line screen (SRB), Colon Cancer
NCI-H322M = assay: NCI 60 cell line screen (SRB), Non-Small Cell Lung Cancer

Question: How did the Log10TGI (PC-3; PG=0) turn out when `CC1=C(C=Cc2cccc(C=CC3=C(C)C4CCC(C)C5CCC6(C)OOC45C(O3)O6)c2)OC2OC3(C)CCC4C(C)CCC1C24OO3` (centres unmarked) [VII-h] was run?
Answer: >−4.00 log10M

Question: And the “Log10 GI50 (PG=+50) or LC50 (PG=−50)” value (PC-3; PG=+50)?
Answer: −7.70 log10M

Question: And the “Log10 GI50 (PG=+50) or LC50 (PG=−50)” value (PC-3; Table IV (LC50, PG=−50))?
Answer: >−4.00 log10M

Question: And the Log10TGI (SF-295; PG=0)?
Answer: >−4.00 log10M

Question: What about the Log10GI50 (SF-295; PG=+50) of the same molecule?
Answer: −6.39 log10M

Question: And the Log10TGI ([1]; PG=0)?
Answer: −5.72 log10M

Question: What about the Log10GI50 ([1]; PG=+50) of the same molecule?
Answer: −7.31 log10M

Question: And the Log10GI50 ([1]; Table IV (LC50, PG=−50))?
Answer: >−4.00 log10M

Question: What about the Log10TGI (OVCAR-5; PG=0) of the same molecule?
Answer: >−4.00 log10M

Question: And the Log10GI50 (OVCAR-5; PG=+50)?
Answer: −7.12 log10M

Question: What about the Log10GI50 (OVCAR-5; Table IV (LC50, PG=−50)) of the same molecule?
Answer: >−4.00 log10M

Question: What about the Log10TGI (NCI-H522; PG=0) of the same molecule?
Answer: >−4.00 log10M

Question: And the Log10GI50 (NCI-H522; PG=+50)?
Answer: −7.22 log10M

Question: And the Log10GI50 (NCI-H522; Table IV (LC50, PG=−50))?
Answer: >−4.00 log10M

Question: What about the Log10TGI (SK-MEL-5; PG=0) of the same molecule?
Answer: −6.21 log10M

Question: And the “Log10 GI50 or LC50” value (SK-MEL-5; PG=+50)?
Answer: −7.36 log10M

Question: And the Log10TGI (SNB-19; PG=0)?
Answer: >−4.00 log10M

Question: What about the “Log10GI50 or Log10LC50 (see condition)” value (SNB-19; PG=+50) of the same molecule?
Answer: −7.09 log10M

Question: And the “Log10GI50 or Log10LC50 (see condition)” value (SNB-19; Table IV (LC50, PG=−50))?
Answer: >−4.00 log10M

Question: What about the Log10TGI (K-562; PG=0) of the same molecule?
Answer: −7.70 log10M

Question: What about the Log10GI50 (K-562; PG=+50) of the same molecule?
Answer: −7.70 log10M

Question: What about the Log10GI50 (K-562; Table IV (LC50, PG=−50)) of the same molecule?
Answer: >−4.00 log10M

Question: And the Log10TGI (MDA-MB-435; MDA-MB-435, PG=0)?
Answer: >−4.00 log10M

Question: What about the Log10GI50 (MDA-MB-435; MDA-MB−435, PG=+50) of the same molecule?
Answer: −7.29 log10M

Question: And the Log10GI50 (MDA-MB-435; Table IV (LC50, PG=−50), MDA-MB-435)?
Answer: >−4.00 log10M

Question: What about the Log10GI50 (SR) of the same molecule?
Answer: >−4.00 log10M

Question: And the Log10TGI (UACC-257; PG=0)?
Answer: >−4.00 log10M

Question: And the “Log10 GI50 (PG=+50) or Log10 LC50 (PG=−50)” value (UACC-257; PG=+50)?
Answer: −7.21 log10M

Question: And the “Log10 GI50 (PG=+50) or Log10 LC50 (PG=−50)” value (UACC-257; Table IV (LC50, PG=−50))?
Answer: >−4.00 log10M

Question: What about the Log10TGI (NCI-H460; PG=0) of the same molecule?
Answer: >−4.00 log10M

Question: And the “Log10 GI50 or Log10 LC50” value (NCI-H460; PG=+50)?
Answer: −5.59 log10M

Question: What about the Log10GI50 (OVCAR-4; OVCAR-4, PG=+50) of the same molecule?
Answer: −7.51 log10M

Question: What about the Log10TGI (OVCAR-4; OVCAR−4, PG=0) of the same molecule?
Answer: −6.31 log10M

Question: What about the Log10GI50 (OVCAR-4; Table IV (LC50, PG=−50), OVCAR−4) of the same molecule?
Answer: >−4.00 log10M

Question: What about the Log10TGI (NCI-H23; PG=0) of the same molecule?
Answer: >−4.00 log10M

Question: And the “log10 GI50 or LC50 (see conditions)” value (NCI-H23; PG=+50)?
Answer: −6.35 log10M

Question: And the “log10 GI50 or LC50 (see conditions)” value (NCI-H23; Table IV (LC50, PG=−50))?
Answer: >−4.00 log10M

Question: What about the Log10TGI (HL-60(TB); PG=0) of the same molecule?
Answer: −7.59 log10M

Question: And the Log10GI50 (HL-60(TB); PG=+50)?
Answer: −7.59 log10M

Question: And the Log10GI50 (HL-60(TB); Table IV (LC50, PG=−50))?
Answer: >−4.00 log10M

Question: And the Log10TGI (UACC-62; PG=0)?
Answer: >−4.00 log10M

Question: And the Log10GI50 (UACC-62; PG=+50)?
Answer: −6.91 log10M

Question: And the Log10GI50 (UACC-62; Table IV (LC50, PG=−50))?
Answer: >−4.00 log10M

Question: What about the Log10GI50 (COLO 205) of the same molecule?
Answer: −7.88 log10M

Question: What about the “antiproliferative activity in words” value [2] of the same molecule?
Answer: at least as antiproliferative as calcitriol

Question: What about the Log10TGI (DU-145; PG=0) of the same molecule?
Answer: >−4.00 log10M

Question: What about the Log10GI50 (DU-145; PG=+50) of the same molecule?
Answer: −6.16 log10M

Question: What about the Log10GI50 (DU-145; Table IV (LC50, PG=−50)) of the same molecule?
Answer: >−4.00 log10M

Question: And the Log10TGI (BT-549; PG=0)?
Answer: −7.10 log10M

Question: And the Log10GI50 (BT-549; PG=+50)?
Answer: <−8.00 log10M

Question: And the Log10GI50 (BT-549; Table IV (LC50, PG=−50))?
Answer: >−4.00 log10M

Question: And the Log10TGI (MDA-MB231/ATCC; PG=0)?
Answer: −5.35 log10M

Question: What about the “Log10 GI50 or LC50 (per conditions)” value (MDA-MB231/ATCC; PG=+50) of the same molecule?
Answer: −6.49 log10M

Question: What about the “Log10 GI50 or LC50 (per conditions)” value (MDA-MB231/ATCC; Table IV (LC50, PG=−50)) of the same molecule?
Answer: >−4.00 log10M

Question: And the Log10TGI (LOX IMVI; PG=0)?
Answer: −5.67 log10M

Question: And the Log10GI50 (LOX IMVI; PG=+50)?
Answer: −7.40 log10M

Question: And the Log10GI50 (LOX IMVI; Table IV (LC50, PG=−50))?
Answer: −4.15 log10M

Question: What about the Log10GI50 (RPMI-8226) of the same molecule?
Answer: >−4.00 log10M

Question: And the Log10TGI (HCC-2998; PG=0)?
Answer: >−4.00 log10M

Question: And the Log10GI50 (HCC-2998; PG=+50)?
Answer: −6.57 log10M

Question: And the Log10TGI (NCI-H322M; PG=0)?
Answer: −5.88 log10M

Question: What about the Log10GI50 (NCI-H322M; PG=+50) of the same molecule?
Answer: −7.56 log10M
